Data: patent US10806142B2, “2-amino-5-ketoxime-pyrimidine derivatives and their use for controlling undesired plant growth” (Bayer CropScience Aktiengesellschaft, priority 2015, dated 2020)
One block for each molecule: values may come before it.

How the values were obtained:
Setaria viridis [1] = experiment: Pre-emergence herbicidal effect; assay type: in vivo
Excerpt: (§1) 1. Pre-Emergence Herbicidal Effect and Crop Plant Compatibility Seeds of monocotyledonous and dicotyledonous weed plants and crop plants are laid out in wood-fiber pots in sandy loam and covered with soil. The compounds of the invention, formulated in the form of wettable powders (WP) or as emulsion concentrates (EC), are then applied to the surface of the covering soil as aqueous suspension or emulsion at a water application rate equating to 600 to 800 L/ha with addition of 0.2% wetting agent. After the treatment, the pots are placed in a greenhouse and kept under good growth conditions for the trial plants. The damage to the trial plants is scored visually after a trial duration of 3 weeks by comparison with untreated controls (herbicidal activity in percent (%): 100% efficacy=the plants have died, 0% efficacy=like control plants). [table]

Alopecurus myosuroides = experiment: Pre-emergence herbicidal effect; assay type: in vivo; settings: dosage 320 g a.i./ha
Excerpt: as §1

Amaranthus retroflexus [2] = experiment: Pre-emergence herbicidal effect; assay type: in vivo
Excerpt: as §1

Stellaria media [3] = experiment: Pre-emergence herbicidal effect; assay type: in vivo
Excerpt: as §1

Avena fatua = experiment: Pre-emergence herbicidal effect; assay type: in vivo; settings: dosage 320 g a.i./ha
Excerpt: as §1

Echinochloa crus-galli = experiment: Pre-emergence herbicidal effect; assay type: in vivo
Excerpt: as §1

Veronica persica = experiment: Pre-emergence herbicidal effect; assay type: in vivo
Excerpt: as §1

Viola tricolor [4] = experiment: Pre-emergence herbicidal effect; assay type: in vivo
Excerpt: as §1

Matricaria inodora = experiment: Pre-emergence herbicidal effect; assay type: in vivo
Excerpt: as §1

Cyperus esculentus = experiment: Pre-emergence herbicidal effect; assay type: in vivo; settings: dosage 320 g a.i./ha
Excerpt: as §1

Polygpnum convolvulus [5] = experiment: Pre-emergence herbicidal effect; assay type: in vivo
Excerpt: as §1

[6] = logp (HCOOH), physicochemical characterization; settings: HCOOH (formic acid)
Setaria viridis [7] = experiment: Post-emergence herbicidal effect; assay type: in vivo; settings: dosage 320 g a.i./ha, visual score after about 3 weeks
Description: (§2) [table] 2. Post-Emergence Herbicidal Effect and Crop Plant Compatibility Seeds of monocotyledonous and dicotyledonous weed and crop plants are laid out in sandy loam in wood-fiber pots, covered with soil and cultivated in a greenhouse under good growth conditions. 2 to 3 weeks after sowing, the test plants are treated at the one-leaf stage. The compounds of the invention, formulated in the form of wettable powders (WP) or as emulsion concentrates (EC), are then sprayed onto the green parts of the plants as aqueous suspension or emulsion at a water application rate equating to 600 to 800 L/ha with addition of 0.2% wetting agent. After the trial plants have been left to stand in a greenhouse under optimal growth conditions for about 3 weeks, the efficacy of the formulations is scored visually in comparison to untreated controls (herbicidal action in percent (%): 100% efficacy=the plants have died, 0% efficacy=like control plants).

Amaranthus retroflexus [8] = experiment: Post-emergence herbicidal effect; assay type: in vivo; settings: visual score after about 3 weeks
Description: as §2

Ipomoea purpurea = experiment: Post-emergence herbicidal effect; assay type: in vivo; settings: visual score after about 3 weeks
Description: as §2

Stellaria media [9] = experiment: Post-emergence herbicidal effect; assay type: in vivo; settings: visual score after about 3 weeks
Description: as §2

Viola tricolor [10] = experiment: Post-emergence herbicidal effect; assay type: in vivo; settings: visual score after about 3 weeks
Description: as §2

Polygpnum convolvulus [11] = experiment: Post-emergence herbicidal effect; assay type: in vivo; settings: visual score after about 3 weeks
Description: as §2

Abutilon theophrasti = experiment: Post-emergence herbicidal effect; assay type: in vivo; settings: visual score after about 3 weeks
Description: as §2

chromatographic logP [6]: 3.86
Compound: CC/C(=N/O)c1cnc(N[C@H]2c3cc(C)ccc3C[C@@H]2C)nc1CC [Compound 1.40b, N-[(1R,2S)-2,6-dimethyl-2,3-dihydro-1H-inden-1-yl]-4-ethyl-5-[(1Z)-N-hydroxypropanimidoyl]pyrimidine-2-amine]
Herbicidal activity against SETVI (Setaria viridis [1]; dosage 80 g a.i./ha): 100%
Herbicidal activity against SETVI (Setaria viridis [1]; dosage 320 g a.i./ha): 100%
Herbicidal activity against ALOMY (Alopecurus myosuroides): 80%
Herbicidal activity against AMARE (Amaranthus retroflexus [2]; dosage 80 g a.i./ha): 100%
Herbicidal activity against AMARE (Amaranthus retroflexus [2]; dosage 320 g a.i./ha): 100%
Herbicidal activity against STEME (Stellaria media [3]; dosage 80 g a.i./ha): 90%
Herbicidal activity against STEME (Stellaria media [3]; dosage 320 g a.i./ha): 100%
Herbicidal activity against AVEFA (Avena fatua): 90%
Herbicidal activity against ECHCG (Echinochloa crus-galli; dosage 80 g a.i./ha): 90%
Herbicidal activity against ECHCG (Echinochloa crus-galli; dosage 320 g a.i./ha): 100%
Herbicidal activity against VERPE (Veronica persica; dosage 80 g a.i./ha): 100%
Herbicidal activity against VERPE (Veronica persica; dosage 320 g a.i./ha): 100%
Herbicidal activity against VIOTR (Viola tricolor [4]; dosage 80 g a.i./ha): 100%
Herbicidal activity against VIOTR (Viola tricolor [4]; dosage 320 g a.i./ha): 100%
Herbicidal activity against MATIN (Matricaria inodora; dosage 80 g a.i./ha): 90%
Herbicidal activity against MATIN (Matricaria inodora; dosage 320 g a.i./ha): 100%
Herbicidal activity against CYPES (Cyperus esculentus): 100%
Herbicidal activity against POLCO (Polygpnum convolvulus [5]; dosage 80 g a.i./ha): 100%
Herbicidal activity against POLCO (Polygpnum convolvulus [5]; dosage 320 g a.i./ha): 100%
Herbicidal activity against SETVI (Setaria viridis [7]): 90%
Herbicidal activity against AMARE (Amaranthus retroflexus [8]; dosage 80 g a.i./ha): 90%
Herbicidal activity against AMARE (Amaranthus retroflexus [8]; dosage 320 g a.i./ha): 100%
Herbicidal activity against PHBPU (Ipomoea purpurea; dosage 80 g a.i./ha): 80%
Herbicidal activity against PHBPU (Ipomoea purpurea; dosage 320 g a.i./ha): 90%
Herbicidal activity against STEME (Stellaria media [9]; dosage 80 g a.i./ha): 70%
Herbicidal activity against STEME (Stellaria media [9]; dosage 320 g a.i./ha): 80%
Herbicidal activity against VIOTR (Viola tricolor [10]; dosage 80 g a.i./ha): 90%
Herbicidal activity against VIOTR (Viola tricolor [10]; dosage 320 g a.i./ha): 90%
Herbicidal activity against POLCO (Polygpnum convolvulus [11]; dosage 80 g a.i./ha): 80%
Herbicidal activity against POLCO (Polygpnum convolvulus [11]; dosage 320 g a.i./ha): 80%

chromatographic logP [6]: 3.86
Compound: CCCC/C(=N\O)c1cnc(N[C@H]2c3cc(C)ccc3C[C@@H]2C)nc1 [Compound 1.85a, N-[(1R,2S)-2,6-Dimethyl-2,3-dihydro-1H-inden-1-yl]-5-[(1E)-N-hydroxypentanimidoyl]pyrimidine-2-amine]
Herbicidal activity against SETVI (Setaria viridis [1]; dosage 320 g a.i./ha): 100%
Herbicidal activity against AMARE (Amaranthus retroflexus [2]; dosage 320 g a.i./ha): 80%
Herbicidal activity against STEME (Stellaria media [3]; dosage 80 g a.i./ha): 100%
Herbicidal activity against STEME (Stellaria media [3]; dosage 320 g a.i./ha): 100%
Herbicidal activity against ECHCG (Echinochloa crus-galli; dosage 320 g a.i./ha): 100%
Herbicidal activity against VERPE (Veronica persica; dosage 80 g a.i./ha): 100%
Herbicidal activity against VERPE (Veronica persica; dosage 320 g a.i./ha): 100%
Herbicidal activity against VIOTR (Viola tricolor [4]; dosage 80 g a.i./ha): 100%
Herbicidal activity against VIOTR (Viola tricolor [4]; dosage 320 g a.i./ha): 100%
Herbicidal activity against MATIN (Matricaria inodora; dosage 320 g a.i./ha): 100%
Herbicidal activity against ABUTH (Abutilon theophrasti; dosage 80 g a.i./ha): 80%
Herbicidal activity against ABUTH (Abutilon theophrasti; dosage 320 g a.i./ha): 100%
Herbicidal activity against STEME (Stellaria media [9]; dosage 80 g a.i./ha): 80%
Herbicidal activity against STEME (Stellaria media [9]; dosage 320 g a.i./ha): 90%
Herbicidal activity against VIOTR (Viola tricolor [10]; dosage 80 g a.i./ha): 80%
Herbicidal activity against VIOTR (Viola tricolor [10]; dosage 320 g a.i./ha): 90%
Herbicidal activity against POLCO (Polygpnum convolvulus [11]; dosage 80 g a.i./ha): 80%
Herbicidal activity against POLCO (Polygpnum convolvulus [11]; dosage 320 g a.i./ha): 80%

chromatographic logP [6]: 4.1
Compound: CCCC/C(=N/O)c1cnc(N[C@H]2c3cc(C)ccc3C[C@@H]2C)nc1 [Compound 1.85b, N-[(1R,2S)-2,6-dimethyl-2,3-dihydro-1H-inden-1-yl]-5-[(1Z)-N-hydroxypentanimidoyl]pyrimidine-2-amine]
Herbicidal activity against AMARE (Amaranthus retroflexus [2]; dosage 320 g a.i./ha): 80%
Herbicidal activity against STEME (Stellaria media [3]; dosage 80 g a.i./ha): 100%
Herbicidal activity against STEME (Stellaria media [3]; dosage 320 g a.i./ha): 100%
Herbicidal activity against VERPE (Veronica persica; dosage 80 g a.i./ha): 100%
Herbicidal activity against VERPE (Veronica persica; dosage 320 g a.i./ha): 100%
Herbicidal activity against VIOTR (Viola tricolor [4]; dosage 80 g a.i./ha): 100%
Herbicidal activity against VIOTR (Viola tricolor [4]; dosage 320 g a.i./ha): 100%
Herbicidal activity against MATIN (Matricaria inodora; dosage 320 g a.i./ha): 80%
Herbicidal activity against POLCO (Polygpnum convolvulus [5]; dosage 320 g a.i./ha): 90%
